Assay results from patent US10259815B2, “Gabaergic ligands and their uses” (UWM Research Foundation, Inc., priority 2015, dated 2019).

Tests used:
[1] = target: T1, α1, β3, γ2 GABA A receptor (Homo sapiens, UniProt P14867+P18507); assay: FLIPR functional assay, α1 GABAA receptor subtype in HEK-293 cells; type: cell-based
T1 construct: host or cells: HEK-293, stably transfected
Source text: The FLIPR functional assay is used to determine the EC50 at the α1 and α3 GABAA receptor subtypes. A high EC50 for the α1 subtype would indicate a low chance of adverse effects, including sedation, ataxia, and muscle relaxation. A low α3 EC50 would indicate potential effectiveness as an anxiolytic, antihyperalgesic, and likely an anticonvulsant. See, for example, Liu et al. (Assay. Drug. Dev. Technol. 2008, 6, 781-6) and Joesch et al. (J. Biomol. Screen. 2008, 13, 218-28).
Compounds tested were synthesized internally and solubilized in DMSO at a 10 mM concentration. GABA was purchase from Sigma (#A2129) and prepared at 100 mM in water.
HEK-293 cells were stably transfected with the α1, β3, γ2 GABA A receptor subunits (GenBank accession numbers NM_000806.3, NM_000814.5, and NM_198904.1, respectively) or α3, β3, γ2 (NM_000808 for α3) where obtained from ChanTest Co. (Catalog # CT6216 and CT6218, respectively).
Cells were cultivated in Dulbeco's Modified Eagle's Medium (DMEM, Sigma D5796) supplemented with 10% Fetal Bovine Serum (FBS, Gibco 16000), 0.5 mg/mL Geneticin (Gibco), 0.04 mg/mL Hygromycin B (Gibco), 0.1 mg/mL Zeocin (Gibco) and 20 mM HEPES (Sigma). Cells were grown at 37° C. in a humidified atmosphere of 5% CO2. In the experiments described here frozen cells were used. For this purpose, cells were gown and maintained under confluency during 2-3 weeks and then frozen down at different cell densities using Recovery™ Cell Culture Freezing Medium (Gibco).
18 hours prior to the experiment, cells were quickly thawed at 37° C. and seeded on Poly-D-Lys 384 plates (Corning 356663) at a density of 25,000 cells/well and in 25 μL of complete cell medium as described above.
Membrane potential changes induced by the flux of ions through the receptor were measured as relative fluorescence units (RFU) using the Fluorometric Imaging Plate Reader (FLIPR Tetra®, Molecular Devices) and the FLIPR Membrane Potential Blue Assay kit (Molecular Devices). Prior to the addition of the compounds the medium was removed and cells were loaded with 20 μL of dye prepared in assay buffer composed of Hank's Balanced Salt Solution (HBSS with Ca^+2 and Mg^+2; Gibco 14025) with 20 mM Hepes. After 1 hour of incubation at room temperature (RT), the plate was placed into the FLIPR instrument and experiments were run adding first 10 μL from the 1st addition plate (compound plate) and after a 3 minutes incubation adding 20 μL of the 2nd addition or agonist plate. The response to this last GABA addition was monitored for another 3 minutes. […]
Data Analysis. The difference between the maximum and the minimum (Max-Min) fluorescence reached during the first addition or read interval and the second read interval were used for data analysis (agonist and potentiation, respectively). […]

[2] = Single-dose pharmacokinetics and brain concentrations, IV and IP, rats; type: in vivo, Sprague-Dawley rats
Experimental: The single-dose pharmacokinetics were determined in femoral artery/vein cannulated Sprague-Dawley rats. The rats received a 1 mg/kg intravenous and 10 mg/kg oral gavage dose of compound. Blood samples were collected at 0.08 (IV only), 0.25, 0.5, 1, 2, 4, 8, 12, and 24 hours after initiation of compound administration. Plasma was obtained via centrifugation. Plasma samples were then analyzed by LC-MS, and pharmacokinetic parameters calculated using Watson (version 7.4; Thermo Fisher Scientific). Calculated parameters include clearance (Cl), volume of distribution (Vdss), area-under-the-curve (AUC), half-life (T½), maximum plasma concentration (Cmax), time of maximum concentration (Tmax), and bioavailability (% F).
Male Sprague-Dawley rats were given either a 1 mg/kg […] dose or 10 mg/kg i.p. dose. Plasma concentrations were taken at 0.08, 0.25, 0.5, 1.0, 2, 4, 8, 12, and 24 hours (three rats per time point for each dose).

Male Sprague-Dawley rats = assay: Inverted screen test (muscle relaxation); type: in vivo
Experimental: Results were analyzed using ANOVA (Dunnett's test: *P<0.05).
The inverted screen test is used to measure whether or not a test compound induces muscle relaxation. When a test subject is placed on a wire screen which is then inverted, the reaction is to climb to the opposite side so they are no longer hanging upside down. If a compound promotes muscle relaxation, the test subjects will either fall off, or hang onto the screen without being able to climb to the opposite side.
Rats were placed onto the top of a wire screen, which was then inverted so that the rats were hanging upside down. […] Results were analyzed using ANOVA (Dunnett's test: *P<0.05).

T1 sequence (P14867 28-456): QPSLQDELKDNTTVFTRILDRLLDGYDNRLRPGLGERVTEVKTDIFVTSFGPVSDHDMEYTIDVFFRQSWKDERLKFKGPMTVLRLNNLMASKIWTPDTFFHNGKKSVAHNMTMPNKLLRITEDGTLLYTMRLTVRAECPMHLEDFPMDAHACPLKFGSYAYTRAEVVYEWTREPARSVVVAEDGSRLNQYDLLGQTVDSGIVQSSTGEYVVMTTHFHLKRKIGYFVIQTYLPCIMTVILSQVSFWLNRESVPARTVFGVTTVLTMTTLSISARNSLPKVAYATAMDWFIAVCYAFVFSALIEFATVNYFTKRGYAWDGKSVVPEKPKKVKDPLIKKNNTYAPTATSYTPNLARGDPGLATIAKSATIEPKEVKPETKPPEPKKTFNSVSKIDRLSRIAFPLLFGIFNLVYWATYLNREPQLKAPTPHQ
T1 sequence (P28472 26-473 partner): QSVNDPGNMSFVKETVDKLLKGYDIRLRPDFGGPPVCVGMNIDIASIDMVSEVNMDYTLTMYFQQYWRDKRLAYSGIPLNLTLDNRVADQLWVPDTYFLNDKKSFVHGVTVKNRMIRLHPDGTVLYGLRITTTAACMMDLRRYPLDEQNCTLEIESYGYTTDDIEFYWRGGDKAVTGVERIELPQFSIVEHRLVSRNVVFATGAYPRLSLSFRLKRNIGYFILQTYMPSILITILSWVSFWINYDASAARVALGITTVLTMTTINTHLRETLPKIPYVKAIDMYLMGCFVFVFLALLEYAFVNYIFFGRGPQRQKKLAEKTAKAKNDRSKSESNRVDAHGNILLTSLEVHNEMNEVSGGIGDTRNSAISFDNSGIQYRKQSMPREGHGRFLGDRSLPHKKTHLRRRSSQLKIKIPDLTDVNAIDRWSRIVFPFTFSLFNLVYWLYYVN
T1 sequence (P18507 40-475): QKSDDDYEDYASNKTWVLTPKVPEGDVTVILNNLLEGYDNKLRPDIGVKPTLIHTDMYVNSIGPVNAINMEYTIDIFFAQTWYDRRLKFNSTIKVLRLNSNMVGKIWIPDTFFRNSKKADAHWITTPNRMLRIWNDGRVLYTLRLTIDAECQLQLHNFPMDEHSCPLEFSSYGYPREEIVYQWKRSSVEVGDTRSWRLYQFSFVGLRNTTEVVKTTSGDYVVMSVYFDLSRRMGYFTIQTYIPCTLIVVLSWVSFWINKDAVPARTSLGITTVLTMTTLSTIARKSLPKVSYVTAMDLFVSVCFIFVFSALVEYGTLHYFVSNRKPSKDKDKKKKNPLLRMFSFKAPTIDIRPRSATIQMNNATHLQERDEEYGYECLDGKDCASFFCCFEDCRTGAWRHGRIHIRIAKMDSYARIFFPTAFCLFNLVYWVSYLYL

Structure (SMILES) | EC50 [1] | mean clearance ([2]; 1 mg/kg IV dose in rat) | mean AUC ([2]; 10 mg/kg IP dose in rat) | mean IP T ½ ([2]; 10 mg/kg IP dose in rat) | mean bioavailability ([2]; 10 mg/kg IP dose in rat) | Cmax ([2]; 10 mg/kg IP dose in rat, plasma) | half-life ([2]; Sprague-Dawley, plasma, 1 mg/kg IV dose in rat, read-out: mean T ½ (converted)) | Vd ([2]; Sprague-Dawley, plasma, 1 mg/kg IV dose in rat, read-out: mean Vdss) | concentration at 1 h ([2]; male, Sprague-Dawley, rat, brain, intraperitoneal, 10 mg/kg IP dose, 1 hour) | concentration at 4 h ([2]; male, Sprague-Dawley, rat, brain, intraperitoneal, 10 mg/kg IP dose, 4 hour) | Kp uu at 1 h ([2]; male, Sprague-Dawley, rat, brain/plasma (unbound), 10 mg/kg IP dose, 1 hour) | Kp uu at 4 h ([2]; male, Sprague-Dawley, rat, brain/plasma (unbound), 10 mg/kg IP dose, 4 hour) | muscle relaxation / motor impairment in inverted screen (Male Sprague-Dawley rats; i.p. 30 minutes prior, diazepam 3, 10, 30 mg/kg, KRM-II-81 10, 30, 60 mg/kg, HZ-166 30 mg/kg) | dose at which signs of muscle relaxation began to appear (Male Sprague-Dawley rats; i.p., inverted screen)
C#Cc1ccc2c(c1)C(c1ccccc1F)=NCc1c(-c3cnco3)ncn1-2 [KRM-II-18B, 5-(8-Ethynyl-6-(2-fluorophenyl)-4H-benzo[f]imidazo[1,5-a][1,4]diazepin-3-yl)oxazole] | > 20 µM |  |  |  |  |  |  |  |  |  |  |  |  | 
C#Cc1ccc2c(c1)C(c1ccccn1)=NCc1c(-c3cnco3)ncn1-2 [KRM-II-81, 5-(8-Ethynyl-6-(pyridin-2-yl)-4H-benzo[f]imidazo[1,5-a][1,4]diazepin-3-yl)oxazole] | > 20 µM | 21.7 mL/min/kg | 16.5 µM·h | 3.1 h | 69% | 3.09 µM | 1.4 h | 1.4 L/kg | 6.63 µM | 2.05 µM | 0.53 | 0.67 | Neither HZ-166 nor KRM-II-81 induced significant muscle relaxation | 60 mg/kg
